Assay results published in US20100190815A1, “HYPERTENSION-AMELIORATING AGENT” (KYOWA HAKKO BIO CO., LTD., priority 2006, published 2010).

System: spontaneously hypertensive rats (SHRs)
Test: Systolic blood pressure by the tail-cuff method in spontaneously hypertensive rats, oral administration once daily for 29 days
Assay type: in vivo, rat
Conditions: for Systolic blood pressure compared with the 1st (vehicle) group: 5 mg/kg (2nd group), from Day 8 to the end of the test period; for Systolic blood pressure: male SHR/Izm rats, mean ± standard error, n=6
Procedure: The rats used were spontaneously hypertensive rats (SHRs). The systolic blood pressure levels of 18 male SHR/Izm rats (10 week olds; Japan SLC, Inc.) were measured on Day 1 of administration. The rats were divided into 3 groups of 6 rats in a manner such that the mean values of the groups were almost equivalent to one another. The groups were referred to as the 1st to the 3rd groups. A 0.5 w/v % methylcellulose aqueous solution was orally administered to the rats in the 1st group. A 0.5 w/v % methylcellulose aqueous solution containing pyrroloquinoline quinone disodium salt (hereinafter, referred to as PQQ disodium salt; Mitsubishi Gas Chemical Company, Inc.) suspended therein (1 mg/mL) was orally administered to the rats in the 2nd group. A 0.5 w/v % methylcellulose aqueous solution containing PQQ disodium salt suspended therein (4 mg/mL) was orally administered to the rats in the 3rd group. Oral administration was carried out in a volume of 5 mL/kg once daily for 29 days. The single dose of PQQ disodium salt was 5 mg/kg in the 2nd group and the same was 20 mg/kg in the 3rd group. On Days 1, 8, 15, 22, and 29 of administration, systolic blood pressure was measured before administration (24 hours after administration on the previous day) and 4 hours after administration of the PQQ disodium salt. Systolic blood pressure was measured by the tail-cuff method with the use of an unheated non-invasive blood pressure monitor for mice and rats (MK-2000, Muromachi Kikai Co., Ltd.). Measurement was carried out 5 times per instance. The mean value of three systolic blood pressure values obtained by excluding the highest value and the lowest value was determined to be the value for an individual rat. The value for each group was expressed as the mean value±standard error (n=6). A statistically significant difference was obtained at each measurement point by carrying out one-way analysis of variance. When the significance was confirmed by one-way analysis of variance, a parametric Dunnett's multiple comparison test was carried so that a significant difference between the 2nd and the 1st group and between the 3rd group and the 1st group were obtained. In addition, in a case in which there was a significance level (p value) of less than 0.05, it was determined that there was a significant difference.

## O=C(O)c1cc(C(=O)O)c2c(n1)C(=O)C(=O)c1cc(C(=O)O)[nH]c1-2.[Na].[Na] [PQQ disodium salt, pyrroloquinoline quinone disodium salt]
4 hours after administration
  Systolic blood pressure compared with the 1st (vehicle) group: lower than that for the 1st group
Before administration
  Systolic blood pressure compared with the 1st (vehicle) group: lower than that for the 1st group
20 mg/kg (3rd group), 4 hours after administration
  Systolic blood pressure compared with the 2nd (5 mg/kg) group: lower than that for the 2nd group
20 mg/kg (3rd group), 4 hours after administration on Day 29, Dunnett's test, p < 0.05
  Systolic blood pressure compared with the 1st (vehicle) group, significance: significantly lower than that for the 1st group
20 mg/kg (3rd group), before administration
  Systolic blood pressure compared with the 2nd (5 mg/kg) group: lower than that for the 2nd group
SHR rats, 5 and 20 mg/kg oral once daily for 29 days
  Hypertension-ameliorating effect in hypertension rats (overall conclusion): blood pressure-reducing effects, namely, hypertension-ameliorating effects, were observed
5 mg/kg oral once daily (2nd group), Day 1, 4 hours after administration
  Systolic blood pressure: 172 ± 4 mmHg
5 mg/kg oral once daily (2nd group), Day 1, before administration (baseline)
  Systolic blood pressure: 172 ± 3 mmHg
5 mg/kg oral once daily (2nd group), Day 8, 4 hours after administration
  Systolic blood pressure: 175 ± 3 mmHg
5 mg/kg oral once daily (2nd group), Day 8, before administration (24 hours after previous dose)
  Systolic blood pressure: 177 ± 3 mmHg
5 mg/kg oral once daily (2nd group), Day 15, 4 hours after administration
  Systolic blood pressure: 184 ± 3 mmHg
5 mg/kg oral once daily (2nd group), Day 15, before administration (24 hours after previous dose)
  Systolic blood pressure: 185 ± 3 mmHg
5 mg/kg oral once daily (2nd group), Day 22, 4 hours after administration
  Systolic blood pressure: 189 ± 3 mmHg
5 mg/kg oral once daily (2nd group), Day 22, before administration (24 hours after previous dose)
  Systolic blood pressure: 189 ± 3 mmHg
5 mg/kg oral once daily (2nd group), Day 29, 4 hours after administration
  Systolic blood pressure: 190 ± 1 mmHg
5 mg/kg oral once daily (2nd group), Day 29, before administration (24 hours after previous dose)
  Systolic blood pressure: 190 ± 1 mmHg
20 mg/kg oral once daily (3rd group), Day 1, 4 hours after administration
  Systolic blood pressure: 171 ± 3 mmHg
20 mg/kg oral once daily (3rd group), Day 1, before administration (baseline)
  Systolic blood pressure: 172 ± 3 mmHg
20 mg/kg oral once daily (3rd group), Day 8, 4 hours after administration
  Systolic blood pressure: 171 ± 2 mmHg
20 mg/kg oral once daily (3rd group), Day 8, before administration (24 hours after previous dose)
  Systolic blood pressure: 174 ± 2 mmHg
20 mg/kg oral once daily (3rd group), Day 15, 4 hours after administration
  Systolic blood pressure: 180 ± 3 mmHg
20 mg/kg oral once daily (3rd group), Day 15, before administration (24 hours after previous dose)
  Systolic blood pressure: 182 ± 3 mmHg
20 mg/kg oral once daily (3rd group), Day 22, 4 hours after administration
  Systolic blood pressure: 184 ± 3 mmHg
20 mg/kg oral once daily (3rd group), Day 22, before administration (24 hours after previous dose)
  Systolic blood pressure: 184 ± 3 mmHg
20 mg/kg oral once daily (3rd group), Day 29, 4 hours after administration, p < 0.05 relative to the 1st (vehicle) group
  Systolic blood pressure: 184 ± 3 mmHg
20 mg/kg oral once daily (3rd group), Day 29, before administration (24 hours after previous dose)
  Systolic blood pressure: 186 ± 3 mmHg
